Structures are written as SMILES.

Data set [1] is described as follows: Hydrolytic degradation in mixtures of ketonic or alcoholic solvents and water. Type of data set: physicochemical. The following applies: forms fosinoprilate, increases with time, higher temperature and higher water content. The source says:
This hydrolytic degradation increases with time and with higher temperature and higher water content of the solvent.

Data set [2] is described as follows: Hydration of the solid under air exposure. The note with it: form B from methanol solutions evaporated in an atomizer at room temperature.
The conditions of data set [3]: polymorph A versus polymorph B; as stated in EP-B-0442378; cited from earlier work.

`CCC(=O)O[C@@H](O[P@](=O)(CCCCc1ccccc1)CC(=O)N1C[C@H](C2CCCCC2)C[C@H]1C(=O)[O-])C(C)C.[Na+]` [sodium fosinopril, sodium salt of fosinopril]: the “hydrolytic stability in solution” value in data set [1] is given as “undergoes hydrolysis”. With `CCC(=O)O[C@@H](O[P@](=O)(CCCCc1ccccc1)CC(=O)N1C[C@H](C2CCCCC2)C[C@H]1C(=O)[O-])C(C)C.[Na+]` [form B, sodium salt of fosinopril], in data set [2], the “hydration under air exposure” value is listed as “spontaneously hydrated under air exposure”. Turning to `CCC(=O)O[C@@H](O[P@](=O)(CCCCc1ccccc1)CC(=O)N1C[C@H](C2CCCCC2)C[C@H]1C(=O)[O-])C(C)C.[Na+]` [polymorph A, sodium salt of fosinopril], the “relative thermodynamic stability of polymorphs” value in data set [3] is listed as “more stable one from the thermodynamic point of view”.

(Values after patent publication US20050010054A1, “Preparation of crystalline polymorphs of fosinopril sodium” (priority 2001, published 2005).)
